Laboratory results published in US12083089B2, “Compositions and methods for stimulating ventilatory and/or respiratory drive” (CASE WESTERN RESERVE UNIVERSITY, priority 2015, dated 2024).
Marks after values point to notes of the source that are not given here.

Experiments:
[1] = system: freely moving adult male Sprague-Dawley rats; experiment: Whole-body plethysmography of ventilatory parameters in morphine-treated rats
Experimental: Permissions, rats, surgical procedures and blinding of protocols. All studies were carried out in accordance with the NIH Guide for the Care and Use of Laboratory Animals (NIH Publication No. […]) revised in 1996. The protocols were approved by the Animal Care and Use Committees of the University of Virginia, Case Western Reserve University and Loma Linda University. In addition, all studies were carried out in compliance with the ARRIVE (Animal Research: Reporting of In Vivo Experiments) guidelines. Adult male Sprague-Dawley rats (Harlan, Madison, WI, USA) were implanted with jugular vein catheters under 2% isoflurane anesthesia and some rats received femoral arterial catheters. The rats were allowed at least four days to recover from surgery before use. All arterial catheters were flushed daily with heparin solution (50 units of heparin in phosphate-buffered saline at 0.1 M, pH 7.4). All catheters were flushed with phosphate-buffered saline (0.1 M, pH 7.4) approximately four hours before commencement of the experiments. All studies were performed in a quiet laboratory with relative humidity of 49±2% and room temperature of 21.4±0.2° C. […] Also, please note that the antinociception and ventilatory studies were done in separate groups of rats so as to not complicate the respiratory measurements. The recording (plethysmography, antinociception) sessions and the arterial blood gas assays were done by a particular investigator who administered the opioid, vehicle or test drug such as d-cystine diME. The syringes containing the vehicle or test drug were made up by another investigator, such that the investigator running the actual experiment was blinded to the treatment protocol. In every case, the data files resulting from a particular study were first collated and analyzed by another investigator in the group.
Ventilatory parameters were recorded in freely moving rats by whole body plethysmography (PLY3223; Data Sciences International, St. Paul, MN). The rats were placed in individual chambers and given 60 min to acclimatize to allow true resting ventilatory parameters to be established. […] The rats received another injection of vehicle or 1-NACme (500 μmol/kg, IV) 15 min later and ventilatory parameters were recorded for a further 60 min.
The provided software (Fine Pointe, BUXCO) constantly corrected digitized values for changes in chamber temperature and humidity. Pressure changes associated with the respiratory waveforms were then converted to volumes (i.e., TV, PIF and PEF) using the algorithm of Epstein and colleagues. Specifically, factoring in chamber temperature and humidity, the cycle analyzers filtered the acquired signals, and BUXCO algorithms (Fine Pointe) generated an array of box flow data that identified a waveform segment as an acceptable breath. From that data vector, the minimum and maximum values were determined. Flows at this point were considered to be “box flow” signals.
The recorded data (1 min bins) and derived parameters, Vt/Ti and Response Area (cumulative percent changes from pre-values) were taken for statistical analyses. The pre-drug 1 min bins excluded occasional marked deviations from resting due to movements or scratching by the rats. These exclusions ensured accurate determinations of baseline parameters. The data are presented as mean±SEM. All data unless other-wise stated (see immediately below) were analyzed by one-way or two-way analysis of variance followed by Student's modified t test with Bonferroni corrections for multiple comparisons between means using the error mean square terms from each ANOVA. A value of P<0.05 denoted the initial level of statistical significance that was modified according to the number of comparisons between means.

[2] = system: freely moving rats; experiment: Arterial blood-gas chemistry and A-a gradient in morphine-treated rats; assay type: in vivo, rat; conditions: for deleterious actions of morphine on ABG chemistry and A-a gradient: bolus 500 μmol/kg i.v. after morphine 10 mg/kg i.v., Example 1; for deleterious effects of morphine on ABG chemistry and A-a gradient after prior infusion: prior infusion 14.3 μmol/kg/min, total 500 μmol/kg i.v. over 35 min, morphine 10 mg/kg i.v.
[3] = system: conscious rats; experiment: Morphine-induced analgesia (paw withdrawal latency assay), Example 1; assay type: in vivo, rat; conditions: pretreatment 500 μmol/kg i.v.; morphine 5 mg/kg i.v.
[4] = system: conscious male adult Sprague-Dawley rats; experiment: Plethysmographic ventilatory responses to test compounds in conscious rats; assay type: in vivo, rat; conditions: 500 μmol/kg, i.v., FIG. 2
[5] = system: freely moving rats; experiment: Tail-flick latency (TFL) test; assay type: in vivo, rat
[6] = system: rats; experiment: Hemodynamics (preliminary toxicology); assay type: in vivo, rat; conditions: 500 μmol/kg, i.v.
Source text: FIGS. 11(A-C) illustrate plots showing the effects of test agents (500 μmol/kg, i.v.) on hemodynamic variables. Data are presented mean±SEM (n=8 rats per group).

[7] = system: adult male rats; experiment: Hargreaves Hind-paw Latency Test, morphine 1 mg/kg; assay type: in vivo, rat; conditions: for Hargreaves hind-paw withdrawal latency: FIG. 24 study
[8] = system: adult male rats; experiment: Von Frey Test, morphine 1 mg/kg; assay type: in vivo, rat; conditions: for force needed to initiate hind-paw withdrawal (Von Frey): FIG. 25 study
[9] = two injections of L-NACme 500 μmol/kg IV after morphine 10 mg/kg IV
[10] = 500 μmol/kg IV with morphine sulfate 1.0 mg/kg IV
[11] = 500 μmol/kg IV, tested 20 to 30 min post-injection

CCOC(=O)[C@H](N)CS [D-CYSee, D-Cysteine ethyl ester]
ventilatory depressant effects of morphine incl. tidal volume/inspiratory time (Vt/Ti) ([1]; bolus 500 μmol/kg i.v. (D-CYSee 2×500 μmol/kg) after morphine 10 mg/kg i.v., conscious rats, Example 1): sustained reversal | deleterious actions of morphine on ABG chemistry and A-a gradient [2]: sustained reversal | decay of morphine analgesia [3]: decayed more quickly | initial level of analgesia (paw withdrawal latency) elicited by morphine [3]: did not affect | total ventilatory responses recorded over the 30 min post-injection period (% baseline), comparison of efficacy [4]: more efficacious that L-CYSee/L-CYSme

N[C@H](CSSC[C@@H](N)C(=O)O)C(=O)O [D-Cystine, D-cystine]
Frequency: Drug - entire 75 min, % change ([1]; rat, in vivo): +4.5 ± 3.3% | Frequency: Drug - last 15 min, % change ([1]; rat, in vivo): +14.3 ± 2.8*^,† % | Frequency: Drug maximum, % change ([1]; rat, in vivo): −1.2 ± 2.1% | Minute Ventilation: Drug - entire 75 min, % change ([1]; rat, in vivo): −19 ± 5 % | Minute Ventilation: Drug - last 15 min, % change ([1]; rat, in vivo): −2 ± 4*^,† % | Minute Ventilation: Drug maximum, % change ([1]; rat, in vivo): −4.4 ± 2.5% | Tidal Volume: Drug - entire 75 min, % change ([1]; rat, in vivo): −22 ± 4 % | Tidal Volume: Drug - last 15 min, % change ([1]; rat, in vivo): −12 ± 2*^,† % | Tidal Volume: Drug maximum, % change ([1]; rat, in vivo): +3.4 ± 2.2% | immediate effects on Freq, TV or MV ([1]; rat, in vivo): did not elicit immediate effects | return of Freq, TV and MV toward pre-morphine levels versus vehicle-treated rats ([1]; rat, in vivo): returned toward pre-morphine levels more quickly | deleterious actions of morphine on ABG chemistry and A-a gradient [2]: minor delayed effects | changes in ABG chemistry (pH, pCO2, pO2 and sO2) ([2]; freely moving rats, morphine 10 mg/kg IV, then drug 500 μmol/kg IV 15 min later, FIG. 18): returned toward pre-injection levels faster | changes in A-a gradient ([2]; freely moving rats, morphine 10 mg/kg IV, then drug 500 μmol/kg IV 15 min later, FIG. 19): returned toward pre-injection levels | Tail-Flick latency ([5]; 10 min-post drug (time −10 min), D-cystine 500 μmol/kg IV alone): 3.3 ± 0.4 s | Tail-Flick latency ([5]; 20 min post-drug (time 0), D-cystine 500 μmol/kg IV alone): 3.2 ± 0.4 s | antinociceptive effects of morphine (TFL) in drug-pretreated rats ([5]; drug 500 μmol/kg IV 20 min before morphine 10 mg/kg IV): also enhanced | Tail-Flick latency ([5]; post-morphine - 30 min, D-cystine 500 μmol/kg IV pretreated, morphine 10 mg/kg IV): 12 ± 0.0 s | Tail-Flick latency ([5]; post-morphine - 60 min, D-cystine 500 μmol/kg IV pretreated, morphine 10 mg/kg IV): 12 ± 0.0 s | Tail-Flick latency ([5]; post-morphine - 90 min, D-cystine 500 μmol/kg IV pretreated, morphine 10 mg/kg IV): 12 ± 0.0 s | Tail-Flick latency (sec) ([5]; post-morphine - 120 min, D-cystine 500 μmol/kg IV pretreated, morphine 10 mg/kg IV): 12 ± 0.0*^,† sec | Tail-Flick latency (sec) ([5]; post-morphine - 180 min, D-cystine 500 μmol/kg IV pretreated, morphine 10 mg/kg IV): 10.7 ± 0.3*^,† sec | Tail-Flick latency (sec) ([5]; post-morphine - 210 min, D-cystine 500 μmol/kg IV pretreated, morphine 10 mg/kg IV): 7.4 ± 0.3*^,† sec | Tail-Flick latency ([5]; post-morphine - 240 min, D-cystine 500 μmol/kg IV pretreated, morphine 10 mg/kg IV): 5.0 ± 0.3 s | Tail-Flick latency ([5]; post-morphine - 360 min, D-cystine 500 μmol/kg IV pretreated, morphine 10 mg/kg IV): 3.5 ± 0.3 s

N[C@H](CS)C(=O)O [D-cysteine]
deleterious actions of morphine on ABG chemistry and A-a gradient [2]: minimal effects

CCOC(=O)[C@@H](N)CS [L-CYSee, L-Cysteine ethyl ester]
cardiac output and heart rate [6]: decreases | hemodynamic responses (FIG. 11) [6]: minimal responses | mean arterial blood pressure (MAP) [6]: substantial transient decreases | total peripheral resistance [6]: no changes | peak inspiratory flow and respiratory drive (Vt/Ti) during infusion ([1]; prior infusion 14.3 μmol/kg/min, total 500 μmol/kg i.v. over 35 min, conscious rats): dramatically increased | subsequent effects of a bolus injection of morphine on ventilation ([1]; prior infusion total 500 μmol/kg i.v. over 35 min, morphine 10 mg/kg i.v.): markedly blunted | effect of a subsequent injection after infusion and morphine ([1]; subsequent injection 250 μmol/kg/min as printed, morphine 10 mg/kg i.v.): prompt beneficial effects | deleterious effects of morphine on ABG chemistry and A-a gradient after prior infusion [2]: virtually eliminated

COC(=O)[C@@H](N)CS [L-CYSme, L-cysteine methylester]
total ventilatory responses recorded over the 30 min post-injection period (% baseline), comparison of efficacy [4]: as efficacious as L-CYSee

COC(=O)[C@H](CS)NC(C)=O [L-NACme, L-N-acetylcysteine methylester]
effects on morphine-induced changes in Freq, TV and MV ([1]; 2×500 μmol/kg, IV, morphine 10 mg/kg): only minor effects | Frequency: Drug - entire 75 min, % change [1, 9]: +11 ± 2 % | Minute Ventilation: Drug - entire 75 min, % change [1, 9]: −19 ± 4 % | Tidal Volume: Drug - entire 75 min, % change [1, 9]: −22 ± 3 % | total ventilatory responses recorded over the 30 min post-injection period (% baseline), comparison of efficacy [4]: comparatively minor effects

CCOC(=O)[C@@H](N)CO [L-SERee, L-serine ethyl ester]
deleterious effects of morphine on ABG chemistry and A-a gradient after prior infusion [2]: without effect | total ventilatory responses recorded over the 30 min post-injection period (% baseline), comparison of efficacy [4]: minimally active

COC(=O)[C@@H](N)CSSC[C@H](N)C(=O)OC [L-cystine diME]
effect on the antinociception actions of morphine (Hargreaves) [7, 10]: neither thiolester affected | thermal nociception (Hargreaves Testing) when given alone [7, 11]: neither d-cystine diME nor L-cystine diME affected | Hargreaves hind-paw withdrawal latency ([7]; L-cystine diME plus morphine): 18.5 ± 1.1 s | Hargreaves hind-paw withdrawal latency ([7]; given alone, L-cystine diME 500 μmol/kg IV, morphine sulfate 1 mg/kg IV): 12.0 ± 0.5 s | Hargreaves hind-paw withdrawal latency ([7]; morphine+L-cystine diME): 17.2 ± 0.9 s | effect on the antinociception actions of morphine (Von Frey) [8, 10]: neither thiolester affected | mechanical allodynia (Von Frey Testing) when given alone [8, 11]: neither d-cystine diME nor L-cystine diME affected | force needed to initiate hind-paw withdrawal (Von Frey) ([8]; L-Cystine diME+morphine): 87.3 ± 4.2 g | force needed to initiate hind-paw withdrawal (Von Frey) ([8]; given alone, L-cystine diME 500 μmol/kg IV, morphine 1 mg/kg IV): 51.0 ± 7.6 g | force needed to initiate hind-paw withdrawal (Von Frey) ([8]; morphine+L-Cystine diME): 86.9 ± 5.2 g
